From patent US12433876B2, “Septin inhibitors for treatment of cancers” (UNIVERSITY OF ROCHESTER, priority 2019, dated 2025)

Tested on: PANC-1 cells
Assay: Live/Dead dye flow cytometry, PANC-1
Type: cell-based, human
Settings: PANC-1, 3 μM
Description: Cell Lines, Cell Culture, and Reagents. PANC-1, BXPC-3 and CAPAN-1, SKOV-3, MCF7, MDA-MD-231 cells were obtained from ATCC and maintained in DMEM, RPMI-1640 and IMDM supplemented with 10% fetal calf serum penicillin (100 units/mL), and streptomycin (100 μg/mL) at 37° C. with 5% CO2 in a humidified incubator. JIMT-1 cells were purchased from AddexBio Inc, USA (catalog number: C0006005) and maintained in 10% FBS and antibiotic supplemented DMEM. […] The reaction was monitored using thin-layer chromatography plates with DCM-MeOH or pure ethyl acetate as eluent. Spots were monitored in a UV chamber. […] ICM scores for each compound and their poses were calculated and compared with FCF. […] Cell viability of PANC-1, BXPC-3 and CAPAN-1 pancreatic cancer cells treated with UR214-9 was measured using the Cell Titre96R Aqueous One Solution Cell Proliferation Assay (Promega Corp., catalog number: G3580) following the procedure published earlier. […] The cells were analyzed by a 305 flow cytometer and relative live and dead cell population was calculated by inputting equal number of cells in both vehicle and control group.

O=C(Nc1cc(Cl)nc(Cl)c1)Nc1cccc(SC(F)(F)F)c1F [UR214-9]
dead-cell population: over 38%
